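Cultured in 96-well plates, cells were exposed to test compound for 48 hours across five concentrations. At the GI50, growth is halved. At the TGI there is no net growth.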
Legend:
Experiment in all cases: inhibition of tumour cell growth, NCI panel, 48 h
[1] = test system: BT-549 breast
[2] = test system: UO-31 renal
[3] = test system: COLO 205 colon
[4] = test system: A498 renal
[5] = test system: SF-539 CNS
[6] = test system: SK-OV-3 ovarian
[7] = test system: T-47D breast
[8] = test system: NCI-H522 lung
[9] = test system: HOP-92 NSCLC
[10] = test system: MDA-MB-435
[11] = test system: OVCAR-4 ovarian
[12] = test system: NCI/ADR-RES ovarian
[13] = test system: SF-295 CNS
[14] = test system: HCC-2998 colon
[15] = test system: HL-60(TB) leukemia
[16] = test system: A549 NSCLC
[17] = test system: OVCAR-8 ovarian
[18] = test system: UACC-62 melanoma
[19] = test system: EKVX NSCLC
[20] = test system: SNB-19 CNS
[21] = test system: HCT-15 colon
[22] = test system: K-562 leukemia
[23] = test system: M14 melanoma
[24] = test system: HOP-62 NSCLC
[25] = test system: SR leukemia
[26] = test system: UACC-257 melanoma
[27] = test system: SN12C renal
[28] = test system: MDA-MB-231 breast
[29] = test system: SF-268 CNS
[30] = test system: HT29 colon
[31] = test system: SW-620 colon
[32] = test system: MALME-3M melanoma
[33] = test system: KM12 colon
[34] = test system: PC-3 prostate
[35] = test system: 786-0 renal
[36] = test system: OVCAR-5 ovarian
[37] = test system: CAKI-1 renal
[38] = test system: IGROV1 ovarian
[39] = test system: U251 CNS
[40] = test system: MOLT-4 leukemia
[41] = test system: HCT-116 colon
[42] = test system: SK-MEL-2 melanoma
[43] = test system: SNB-75 CNS
[44] = test system: DU-145 prostate
[45] = test system: HS 578T breast
[46] = test system: CCRF-CEM leukemia
[47] = test system: SK-MEL-5 melanoma
[48] = test system: NCI-H226 lung
[49] = test system: ACHN renal
[50] = test system: NCI-H23 lung
[51] = test system: TK-10 renal
[52] = test system: LOX IMVI melanoma

## CC1CC2(C)CC(=O)C1C1C(=O)N(CCN3CCCCC3)C(=O)C12 (centres undefined)
[1]
  GI50: > 100 µM
  TGI: > 100 µM
[2]
  GI50: > 100 µM
  TGI: > 100 µM
[3]
  GI50: > 100 µM
  TGI: > 100 µM
[4]
  GI50: > 100 µM
  TGI: > 100 µM
[5]
  GI50: > 100 µM
  TGI: > 100 µM
[6]
  GI50: > 100 µM
  TGI: > 100 µM
[7]
  GI50: > 100 µM
  TGI: > 100 µM
[8]
  GI50: > 100 µM
  TGI: > 100 µM
[9]
  GI50: > 100 µM
  TGI: > 100 µM
[10]
  GI50: > 100 µM
  TGI: > 100 µM
[11]
  GI50: > 100 µM
  TGI: > 100 µM
[12]
  GI50: > 100 µM
  TGI: > 100 µM
[13]
  GI50: > 100 µM
  TGI: > 100 µM
[14]
  GI50: > 100 µM
  TGI: > 100 µM
[15]
  GI50: > 100 µM
  TGI: > 100 µM
[16]
  GI50: > 100 µM
  TGI: > 100 µM
[17]
  GI50: > 100 µM
  TGI: > 100 µM
[18]
  GI50: > 100 µM
  TGI: > 100 µM
[19]
  GI50: > 100 µM
  TGI: > 100 µM
[20]
  GI50: > 100 µM
  TGI: > 100 µM
[21]
  GI50: > 100 µM
  TGI: > 100 µM
[22]
  GI50: > 100 µM
  TGI: > 100 µM
[23]
  GI50: > 100 µM
  TGI: > 100 µM
[24]
  GI50: > 100 µM
  TGI: > 100 µM
[25]
  GI50: > 100 µM
  TGI: > 100 µM
[26]
  GI50: > 100 µM
  TGI: > 100 µM
[27]
  GI50: > 100 µM
  TGI: > 100 µM
[28]
  GI50: > 100 µM
  TGI: > 100 µM
[29]
  GI50: > 100 µM
  TGI: > 100 µM
[30]
  GI50: > 100 µM
  TGI: > 100 µM
[31]
  GI50: > 100 µM
  TGI: > 100 µM
[32]
  GI50: > 100 µM
  TGI: > 100 µM
[33]
  GI50: > 100 µM
  TGI: > 100 µM
[34]
  GI50: > 100 µM
  TGI: > 100 µM
[35]
  GI50: > 100 µM
  TGI: > 100 µM
[36]
  GI50: > 100 µM
  TGI: > 100 µM
[37]
  GI50: > 100 µM
  TGI: > 100 µM
[38]
  GI50: > 100 µM
  TGI: > 100 µM
[39]
  GI50: > 100 µM
  TGI: > 100 µM
[40]
  GI50: > 100 µM
  TGI: > 100 µM
[41]
  GI50: > 100 µM
  TGI: > 100 µM
[42]
  GI50: > 100 µM
  TGI: > 100 µM
[43]
  GI50: > 100 µM
  TGI: > 100 µM
[44]
  GI50: > 100 µM
  TGI: > 100 µM
[45]
  GI50: > 100 µM
  TGI: > 100 µM
[46]
  GI50: > 100 µM
  TGI: > 100 µM
[47]
  GI50: > 100 µM
  TGI: > 100 µM
[48]
  GI50: > 100 µM
  TGI: > 100 µM
[49]
  GI50: > 100 µM
  TGI: > 100 µM
[50]
  GI50: > 100 µM
  TGI: > 100 µM
[51]
  GI50: > 100 µM
  TGI: > 100 µM
[52]
  GI50: > 100 µM
  TGI: > 100 µM
